Patent US20230087342A1, “AZEPANE DERIVATIVE” (Nippon Chemiphar Co., Ltd., priority 2019, published 2023)

Target: T1, human κ opioid receptors (Homo sapiens, UniProt P41145)
T1 construct: host or cells: CHO cells
Test: Opioid receptor function test (Lance Ultra cAMP kit, agonist activity)
Format: cell-based
Conditions: CHO cells expressing human κ opioid receptors, 10 μM forskolin, 30 minutes
Method in brief: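 CHO cells expressing human κ opioid receptor incubated 30 min with test compound (10^−14 to 10^−7 M) and 10 μM forskolin in HSS/5 mM HEPES pH 7.4 with 0.5 mM IBMX and 0.1% SA. cAMP measured by TR-FRET (Lance Ultra) 1 h after detection reagent addition.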

T1 sequence (P41145 whole entry): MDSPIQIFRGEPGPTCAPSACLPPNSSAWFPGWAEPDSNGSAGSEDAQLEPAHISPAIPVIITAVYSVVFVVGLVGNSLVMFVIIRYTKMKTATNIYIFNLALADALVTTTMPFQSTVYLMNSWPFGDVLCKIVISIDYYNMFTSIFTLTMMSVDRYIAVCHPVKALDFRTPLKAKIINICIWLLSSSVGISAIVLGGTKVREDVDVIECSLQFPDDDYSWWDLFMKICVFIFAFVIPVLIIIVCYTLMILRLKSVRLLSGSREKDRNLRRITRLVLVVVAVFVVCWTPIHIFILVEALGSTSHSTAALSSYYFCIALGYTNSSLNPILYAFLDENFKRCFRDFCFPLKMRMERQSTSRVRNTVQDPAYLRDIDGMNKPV

Going from `Oc1ccc2c(c1)[C@@]13CCN(CCn4cc(C5CC5)cn4)CC[C@@]1(O)[C@@H](C2)N(CC1CC1)CC3` [Example 183, (5aS,6R,11bS)-3-(2-(4-cyclopropyl-1H-pyrazol-1-yl)ethyl)-14-(cyclopropylmethyl)-2,3,4,5,6,7-hexahydro-6,11b-(epiminoethano)naphtho[1,2-d]azepine-5a,10(1H)-diol] to `N#Cc1cnn(CCN2CC[C@]34CCN(CC5CC5)[C@H](Cc5ccc(O)cc53)[C@]4(O)CC2)c1` [Example 189, 1-(2-((5aS,6R,11bS)-14-(cyclopropylmethyl)-5a,10-dihydroxy-1,2,5,5a,6,7-hexahydro-6,11b-(epiminoethano)naphtho[1,2-d]azepin-3(4H)-yl)ethyl)-1H-pyrazole-4-carbonitrile], the EC50 rises from 0.03 nM to 0.39 nM (13-fold).

Going from `Oc1ccc2c(c1)[C@@]13CCN(CCN4CCc5ccccc54)CC[C@@]1(O)[C@@H](C2)N(CC1CC1)CC3` [Example 126, (5aS,6R,11bS)-14-(cyclopropylmethyl)-3-(2-(indolin-1-yl)ethyl)-2,3,4,5,6,7-hexahydro-6,11b-(epiminoethano)naphtho[1,2-d]azepine-5a,10(1H)-diol] to `Oc1ccc2c(c1)[C@@]13CCN(CC4(c5ccccn5)CC4)CC[C@@]1(O)[C@@H](C2)N(CC1CC1)CC3` [Example 108, (5aS,6R,11bS)-14-(cyclopropylmethyl)-3-((1-(pyridin-2-yl)cyclopropyl)methyl)-2,3,4,5,6,7-hexahydro-6,11b-(epiminoethano)naphtho[1,2-d]azepine-5a,10(1H)-diol], the EC50 falls from 0.74 nM to 0.066 nM (11-fold). The second is the more potent here.

First: Cc1cn(CC(=O)N2CC[C@]34CCN(CC5CC5)[C@H](Cc5ccc(O)cc53)[C@]4(O)CC2)nc1C(F)(F)F [Example 163, 1-((5aS,6R,11bR)-14-(cyclopropylmethyl)-5a,10-dihydroxy-1,2,5,5a,6,7-hexahydro-6,11b-(epiminoethano)naphtho[1,2-d]azepin-3(4H)-yl)-2-(4-methyl-3-(trifluoromethyl)-1H-pyrazol-1-yl)ethan-1-one]
Second: Cc1cc(CCC(=O)N2CC[C@]34CCN(CC5CC5)[C@H](Cc5ccc(O)cc53)[C@]4(O)CC2)ns1 [Example 217, 1-((5aS,6R,11bR)-14-(cyclopropylmethyl)-5a,10-dihydroxy-1,2,5,5a,6,7-hexahydro-6,11b-(epiminoethano)naphtho[1,2-d]azepin-3(4H)-yl)-3-(5-methylisothiazol-3-yl)propan-1-one]
The EC50 of the first is 2.4-fold lower: 0.076 nM for the first, 0.18 nM for the second.

First: Oc1ccc2c(c1)[C@@]13CCN(CCn4nccn4)CC[C@@]1(O)[C@@H](C2)N(CC1CC1)CC3 [Example 66, (5aS,6R,11bS)-3-(2-(2H-1,2,3-triazol-2-yl)ethyl)-14-(cyclopropylmethyl)-2,3,4,5,6,7-hexahydro-6,11b-(epiminoethano)naphtho[1,2-d]azepine-5a,10(1H)-diol]
Second: Cc1cc(C)n(CCN2CC[C@]34CCN(CC5CC5)[C@H](Cc5ccc(O)cc53)[C@]4(O)CC2)n1 [Example 56, (5aS,6R,11bS)-14-(cyclopropylmethyl)-3-(2-(3,5-dimethyl-1H-pyrazol-1-yl)ethyl)-2,3,4,5,6,7-hexahydro-6,11b-(epiminoethano)naphtho[1,2-d]azepine-5a,10(1H)-diol]
The EC50 of the first is 6.9-fold lower: 0.14 nM for the first, 0.97 nM for the second.

`Cc1cnn(C2CC(N3CC[C@]45CCN(CC6CC6)[C@H](Cc6ccc(O)cc64)[C@]5(O)CC3)C2)c1` (single isomer, unassigned) [Example 227 (II)] and `Cc1cnn(C[C@H](CO)N2CC[C@]34CCN(CC5CC5)[C@H](Cc5ccc(O)cc53)[C@]4(O)CC2)c1` [Example 232, (5aS,6R,11bS)-14-(cyclopropylmethyl)-3-((R)-1-hydroxy-3-(4-methyl-1H-pyrazol-1-yl)propan-2-yl)-2,3,4,5,6,7-hexahydro-6,11b-(epiminoethano)naphtho[1,2-d]azepine-5a,10(1H)-diol] are within 1.5-fold of each other in EC50: 0.16 nM for the first, 0.17 nM for the second.

Compared with `Cc1ccnc(CCN2CC[C@]34CCN(CC5CC5)[C@H](Cc5ccc(O)cc53)[C@]4(O)CC2)c1` [Example 105, (5aS,6R,11bS)-14-(cyclopropylmethyl)-3-(2-(4-methylpyridin-2-yl)ethyl)-2,3,4,5,6,7-hexahydro-6,11b-(epiminoethano)naphtho[1,2-d]azepine-5a,10(1H)-diol], `Oc1ccc2c(c1)[C@@]13CCN(CCc4ccsn4)CC[C@@]1(O)[C@@H](C2)N(CC1CC1)CC3` [Example 209, (5aS,6R,11bS)-14-(cyclopropylmethyl)-3-(2-(isothiazol-3-yl)ethyl)-2,3,4,5,6,7-hexahydro-6,11b-(epiminoethano)naphtho[1,2-d]azepine-5a,10(1H)-diol] is 1.8-fold lower in EC50: 0.088 nM for the first, 0.05 nM for the second.

`Oc1ccc2c(c1)[C@@]13CCN(CCN4CCC(F)(F)C4)CC[C@@]1(O)[C@@H](C2)N(CC1CC1)CC3` [Example 182, (5aS,6R,11bS)-14-(cyclopropylmethyl)-3-(2-(3,3-difluoropyrrolidin-1-yl)ethyl)-2,3,4,5,6,7-hexahydro-6,11b-(epiminoethano)naphtho[1,2-d]azepine-5a,10(1H)-diol] and `Cc1cc2c(cc1O)[C@@]13CCN(C(=O)CN4CC[C@@H](C)C4)CC[C@@]1(O)[C@@H](C2)N(CC1CC1)CC3` [Example 336, 1-((5aS,6R,11bR)-14-(cyclopropylmethyl)-5a,10-dihydroxy-9-methyl-1,2,5,5a,6,7-hexahydro-6,11b-(epiminoethano)naphtho[1,2-d]azepin-3(4H)-yl)-2-((R)-3-methylpyrrolidin-1-yl)ethan-1-one] are within 1.5-fold of each other in EC50: 0.22 nM for the first, 0.18 nM for the second.

Compound `Cc1cc2c(cc1O)[C@@]13CCN(C(=O)Cc4cc(C(F)(F)F)ccn4)CC[C@@]1(O)[C@@H](C2)N(CC1CC1)CC3` [Example 355, 1-((5aS,6R,11bR)-14-(cyclopropylmethyl)-5a,10-dihydroxy-9-methyl-1,2,5,5a,6,7-hexahydro-6,11b-(epiminoethano)naphtho[1,2-d]azepin-3(4H)-yl)-2-(4-(trifluoromethyl)pyridin-2-yl)ethan-1-one] has an EC50 of 0.11 nM.

System: not listed separately
Test: Metabolic stability test
Format: in vitro ADME
Conditions: human liver microsomes, 0 to 30 minutes; a hydrochloride was used
Method: To determine the unchanged product-residual ratio of the test compound in the reaction sample, human liver microsomes and the test compound were reacted for a predetermined time (0 to 30 minutes). The unchanged product-residual ratio at a reaction time of 0 hours was considered 100%, the residual ratio after incubation was log-linear plotted with respect to the time, a regression line (y=100 e^−kt, k=slope of the line: elimination rate constant) was determined, and the metabolic clearance CLint (mL/min/kg) was calculated using the following formula.
CLint*=k (−min)×45 (mg MS protein/g liver)×21 (g liver/kg)/MS protein (mg MS protein/mL)
*: Yamazaki S.; Skaptason J.; Romero D, Vekich S.; Jones HM.; Tan W.; Wilner KD.; Koudriakova T. Drug Metab. Dispos. 2011 March; 39 (3): 383-393.

Going from `Cc1cc2c(cc1O)[C@@]13CCN(C(=O)Cc4cccc(C(F)(F)F)n4)CC[C@@]1(O)[C@@H](C2)N(CC1CC1)CC3` [Example 322, 1-((5aS,6R,11bR)-14-(cyclopropylmethyl)-5a,10-dihydroxy-9-methyl-1,2,5,5a,6,7-hexahydro-6,11b-(epiminoethano)naphtho[1,2-d]azepin-3(4H)-yl)-2-(6-(trifluoromethyl)pyridin-2-yl)ethan-1-one] to `O=C(Cc1ccccn1)N1CC[C@]23CCN(CC4CC4)[C@H](Cc4cc(C(F)(F)F)c(O)cc42)[C@]3(O)CC1` [Example 320, 1-((5aS,6R,11bR)-14-(cyclopropylmethyl)-5a,10-dihydroxy-9-(trifluoromethyl)-1,2,5,5a,6,7-hexahydro-6,11b-(epiminoethano)naphtho[1,2-d]azepin-3(4H)-yl)-2-(pyridin-2-yl)ethan-1-one], the CLint scaled rises from 6.6 mL/min/kg to 22.9 mL/min/kg (3.5-fold).

Going from `Cc1cnn(CCN2CC[C@]34CCN(CC5CC5)[C@H](Cc5cc(I)c(O)cc53)[C@]4(O)CC2)c1` [Example 298, (5aS,6R,11bS)-14-(cyclopropylmethyl)-9-iodo-3-(2-(4-methyl-1H-pyrazol-1-yl)ethyl)-2,3,4,5,6,7-hexahydro-6,11b-(epiminoethano)naphtho[1,2-d]azepine-5a,10(1H)-diol] to `Cc1cnn(CCN2CC[C@]34CCN(CC5CC5)[C@H](Cc5cccc(O)c53)[C@]4(O)CC2)c1` [Example 277, (5aS,6R,11bS)-14-(cyclopropylmethyl)-3-(2-(4-methyl-1H-pyrazol-1-yl)ethyl)-2,3,4,5,6,7-hexahydro-6,11b-(epiminoethano)naphtho[1,2-d]azepine-5a,11(1H)-diol], the CLint scaled falls from 22.5 mL/min/kg to 6.4 mL/min/kg (3.5-fold).

`NC(=O)c1ccc2c(c1)[C@@]13CCN(C(=O)Cc4ccccn4)CC[C@@]1(O)[C@@H](C2)N(CC1CC1)CC3` [Example 247, (5aS,6R,11bR)-14-(cyclopropylmethyl)-5a-hydroxy-3-(2-(pyridin-2-yl)acetyl)-1,2,3,4,5,5a,6,7-octahydro-6,11b-(epiminoethano)naphtho[1,2-d]azepine-10-carboxamide] and `O=C(Cc1ncccn1)N1CC[C@]23CCN(CC4CC4)[C@H](Cc4ccc(O)cc42)[C@]3(O)CC1` [Example 20, 1-((5aS,6R,11bR)-14-(cyclopropylmethyl)-5a,10-dihydroxy-1,2,5,5a,6,7-hexahydro-6,11b-(epiminoethano)naphtho[1,2-d]azepin-3(4H)-yl)-2-(pyrimidin-2-yl)ethan-1-one] are within 1.5-fold of each other in CLint scaled: 4.8 mL/min/kg for the first, 3.9 mL/min/kg for the second.

Going from `O=C(Cc1ncccn1)N1CCC[C@@]2(O)[C@H]3Cc4ccc(O)cc4[C@@]2(CCN3CC2CC2)C1` [Example 139, 1-((5aS,6R,11bS)-14-(cyclopropylmethyl)-5a,10-dihydroxy-3,4,5,5a,6,7-hexahydro-6,11b-(epiminoethano)naphtho[1,2-c]azepin-2(1H)-yl)-2-(pyrimidin-2-yl)ethan-1-one] to `Cc1cnn(CCN2CC[C@]34CCN[C@H](Cc5ccc(O)cc53)[C@]4(O)CC2)c1` [Example 176, (5aS,6R,11bR)-3-(2-(4-methyl-1H-pyrazol-1-yl)ethyl)-2,3,4,5,6,7-hexahydro-6,11b-(epiminoethano)naphtho[1,2-d]azepine-5a,10(1H)-diol], the CLint scaled falls from 29.7 mL/min/kg to 8.2 mL/min/kg (3.6-fold).
